Experiment: Tissue distribution by quantitative whole-body autoradiography (QWBA)
Format: in vivo, male Sprague Dawley and Long-Evans rats
Details: PO 15 mg/kg, Group 7
Procedure: The study utilized 4 groups of male SD rats (albino), and 3 groups of male LE rats (pigmented); a total of 39 rats. All animals were obtained from Hilltop Lab Animals, Inc. (Scottdale, Pa.). […] Rats in Group 5 were administered a single 2-h IV infusion of [^14C]brincidofovir at a target dose of 2 mg/kg. […] Three dosing formulations (one for high dose IV, one for low dose IV, and one for PO dose) were prepared at QPS on the day of dosing. The IV formulation for Groups 1, 2, 3, and 4 contained a vehicle of 10 mM sodium phosphate buffer in 5% dextrose solution at pH 8.0(±0.1).
Each animal, at their respective termination time points, was euthanized for QWBA analysis immediately after blood collection. One rat per time point per Group was euthanized as listed below.
The blood samples were maintained on wet ice (approximately 4° C.) and then centrifuged to obtain plasma within 1 h of the blood collection time. Centrifuge settings were recorded in the study notebook. Duplicate aliquots of plasma (0.050 mL) were analyzed for radioactivity using direct counting by LSC, and residual plasma was stored at approximately −70° C. and was saved for possible future analysis under a separate study protocol. Residual red blood cells were discarded as radioactive waste.
The pinna, distal limbs, hair, and tail were removed from each frozen carcass and each frozen carcass was embedded in an aqueous suspension of approximately 2% (w/v) carboxymethylcellulose and frozen into a block. The blocks were stored at approximately −20° C. prior to sectioning. Each blocked carcass was mounted on the object stage of a cryomicrotome (Leica CM3600 Cryomacrocut, Nussloch, Germany and Vibratome 9800, St. Louis, Mo.) maintained at approximately −20° C. and internal standards (3), which were plasma fortified with [^14C]-glucose at one concentration (approximately 0.05 μCi/mL), were placed into the frozen blocks, prior to sectioning, and were used for section thickness quality control. A number of whole-body sections (approximately 40 μm thick) were taken in the sagittal plane at various levels of interest using a whole-body cryomicrotome set at −20° C. Sagittal sections (20-50 μm thick) of frozen carcasses were exposed to phosphor imaging plates. Regions of images in tissues were converted to concentrations using standards. All of the major tissues, organs, and biological fluids were represented.
Tissue concentration data was determined for the following tissues and/or contents: adipose (brown and white), adrenal gland, bile (in duct), blood (cardiac), bone, bone marrow, brain (cerebrum, cerebellum, medulla), cecum (and contents), large intestine (and contents), epididymis, esophagus, eye (uvea and lens), Harderian gland, heart, kidney (cortex and medulla), liver, lung, lymph node, pancreas, pituitary gland, prostate gland, salivary gland, seminal vesicles, skeletal muscle, skin (pigmented and non-pigmented), small intestine (and contents), stomach (gastric mucosa and contents), spleen, spinal cord, testis, thymus, thyroid, and urinary bladder (and contents).
The imaging plate and sections were placed in light-tight exposure cassettes, in a copper-lined lead safe, for a 4-day exposure at room temperature. […] Quantification was performed by image densitometry using MCD image analysis software (v. 7.0, Interfocus Imaging Ltd) and a standard curve constructed from the integrated response [i.e., Molecular Dynamics Counts per square millimeter (MDC/mm^2)] and the nominal concentrations of the ^14C-calibration standards. The concentrations of radioactivity were expressed as the μg equivalents of [^14C]brincidofovir per gram sample (μg equiv/g). A lower limit of quantification (LLOQ) was applied to the data (See section 6.7.4).
Tissue concentrations that fell below the LLOQ were identified as being below the quantification limit (BQL). Tissue areas that were not visualized on autoradiographic images were identified as no sample (NS) and reported as BQL.

## CCCCCCCCCCCCCCCCOCCCOP(=O)(O)CO[C@H](CO)Cn1ccc(N)nc1=O [[14C]brincidofovir]
Liver, estimate (footnote a)
  t1/2: 190.3 h
Lung
  AUCall: 53.1145 μg equiv · h/g
  AUCinf—obs: 39.9962 μg equiv · h/g
  Tmax: 8 h
  t1/2: 93.0 h
Lymph Node
  AUCall: 85.04 μg equiv · h/g
  AUCinf—obs: 57.7701 μg equiv · h/g
  Tmax: 8 h
Lymph Node, estimate (footnote a)
  t1/2: 86.4 h
Pancreas
  AUCall: 10.3720 μg equiv · h/g
  AUCinf—obs: 12.7271 μg equiv · h/g
  Tmax: 4 h
  t1/2: 62.1 h
Pituitary Gland
  AUCall: 30.5073 μg equiv · h/g
  AUCinf—obs: 22.8331 μg equiv · h/g
  Tmax: 4 h
  t1/2: 106.2 h
Prostate Gland
  AUCall: 7.6578 μg equiv · h/g
  AUCinf—obs: 11.0471 μg equiv · h/g
  Tmax: 4 h
  t1/2: 70.1 h
Salivary Gland
  AUCall: 9.1933 μg equiv · h/g
  AUCinf—obs: 12.3800 μg equiv · h/g
  Tmax: 8 h
Salivary Gland, estimate (footnote a)
  t1/2: 67.4 h
Seminal Vesicles
  AUCall: 50.2500 μg equiv · h/g
  AUCinf—obs: 34.9600 μg equiv · h/g
  Tmax: 1 h
  t1/2: 64.7 h
Skeletal Muscle
  AUCall: 1.3265 μg equiv · h/g
  Tmax: 8 h
Skin (non-pigmented)
  AUCall: 14.0275 μg equiv · h/g
  AUCinf—obs: 20.6749 μg equiv · h/g
  Tmax: 8 h
Skin (non-pigmented), estimate (footnote a)
  t1/2: 93.7 h
Skin (pigmented)
  AUCall: 17.0405 μg equiv · h/g
  AUCinf—obs: 21.3144 μg equiv · h/g
  Tmax: 8 h
Skin (pigmented), estimate (footnote a)
  t1/2: 63.4 h
Small Intestine
  AUCinf—obs: 9585.0880 μg equiv · h/g
  Tmax: 4 h
  t1/2: 98.1 h
Small Intestine, 15 mg/kg
  AUCall: 9575.1810 μg equiv · h/g
Spinal Cord
  AUCall: 0.1110 μg equiv · h/g
  Tmax: 4 h
Spleen
  AUCall: 172.2208 μg equiv · h/g
  AUCinf—obs: 125.7566 μg equiv · h/g
  Tmax: 24 h
  t1/2: 115.4 h
Stomach (mucosa)
  AUCall: 90.7575 μg equiv · h/g
  AUCinf—obs: 80.6917 μg equiv · h/g
  Tmax: 2 h
  t1/2: 66.8 h
Testis
  AUCall: 30.3920 μg equiv · h/g
  AUCinf—obs: 21.7757 μg equiv · h/g
  Tmax: 8 h
Testis, estimate (footnote a)
  t1/2: 87.2 h
Thymus
  AUCall: 12.0843 μg equiv · h/g
  AUCinf—obs: 20.6983 μg equiv · h/g
  Tmax: 8 h
Thymus, estimate (footnote a)
  t1/2: 96.9 h
Thyroid
  AUCall: 31.3395 μg equiv · h/g
  AUCinf—obs: 21.8086 μg equiv · h/g
  Tmax: 4 h
  t1/2: 59.0 h
Urinary Bladder
  AUCall: 111.2445 μg equiv · h/g
  AUCinf—obs: 91.1627 μg equiv · h/g
  Tmax: 8 h
  t1/2: 49.7 h
